Like-named read-outs stand apart in the source and are kept apart here.
Key:
Botrytis cinerea = type: cell-based; conditions: concentration 4
Leptosphaeria nodorum = type: cell-based
Alternaria solani = type: cell-based
Septoria tritici = type: cell-based
Phytophthora infestans = type: cell-based
Pyricularia oryzae = type: cell-based
[1] = system: southern green stink bug (Nezara viridula); assay: Test 7: control of southern green stink bug on dipped Lima bean plants; type: in vivo; conditions: 50 ppm; mortality (sick + death insects) of second instar at 5 days
Protocol: Beauveria bassiana strain PPRI 5339 was at room temperature for one hour before use.
Seven days old Lima bean plants were dipped into each treatment. Once dried, plants were artificially infested with four second instar southern green stink bugs. Percentage of mortality (sick+ death insects) was evaluated at 5 days.

[2] = system: southern green stink bug (Nezara viridula); assay: Test 5: control of southern green stink bug, dipped green beans and bugs; conditions: 10 ppm

Work on chlorothalonil yielded an Observed efficacy (Botrytis cinerea) of 53% and an Observed efficacy (Leptosphaeria nodorum; concentration 1) of 39%.

`C[C@@H]1C(=O)O[C@H]2C[C@@]34[C@H]5C[C@@H](C(C)(C)C)[C@]36[C@@H](OC(=O)[C@@H]6O)O[C@@]4(C(=O)O5)[C@]21O` [Ginkgolide A] gave an Observed efficacy (Alternaria solani; concentration 16) of 0%, an Observed efficacy (Alternaria solani; concentration 63) of 0% and an Observed efficacy (Septoria tritici; concentration 63) of 16%. It also gave an Observed efficacy (Leptosphaeria nodorum; concentration 63) of 18%.

For `CC1COC(Cn2cncn2)(c2ccc(Oc3ccc(Cl)cc3)cc2Cl)O1` (stereo not shown) [Difenoconazol, difenoconazole], the Observed efficacy (Alternaria solani; concentration 1) was 0% and the Observed efficacy (Leptosphaeria nodorum; concentration 1) was 21%.

In the case of `CCCCCCCCc1c(CC)nc2ncnn2c1N` [Ametoctradin, ametoctradin], the Observed efficacy (Phytophthora infestans; 0.004 ppm) is reported as 0%.

For `CC(C)(C)[C@]1(O)C[C@@H]2OC(=O)C[C@@]23C(=O)O[C@@H]2OC(=O)[C@H](O)[C@]213` [Bilobalide, (3aS,5aR,8aS,9R,10aR)-9-tert-butyl-8,9-dihydroxydihydro-9H-furo[2,3-b]furo[3′,2′;2,3]cyclopenta[1,2-c]furan-2,4,7(3H,8H)-trione], the Observed efficacy (Pyricularia oryzae; concentration 4) was 3%, the Observed efficacy (Pyricularia oryzae; concentration 16) was 1% and the Observed efficacy (Pyricularia oryzae; concentration 63) was 5%. It also gave an Observed efficacy (Phytophthora infestans; 0.063 ppm) of 0%, an Observed efficacy (Phytophthora infestans; 0.25 ppm) of 4% and an Observed efficacy (Phytophthora infestans; 1 ppm) of 24%. The Observed efficacy [1] was 33%, the Observed efficacy (Alternaria solani; concentration 16) was 0% and the Observed efficacy (Alternaria solani; concentration 63) was 0%. For the same compound, the Observed efficacy (Septoria tritici; concentration 1) was 6%, the Observed efficacy (Septoria tritici; concentration 4) was 8% and the Observed efficacy (Septoria tritici; concentration 16) was 9%. It also gave an Observed efficacy (Leptosphaeria nodorum; concentration 63) of 24%.

For `CCCN(CCOc1c(Cl)cc(Cl)cc1Cl)C(=O)n1ccnc1` [Prochloraz, prochloraz], the Observed efficacy (Botrytis cinerea) was 39% and the Observed efficacy (Septoria tritici; concentration 4) was 49%.

For `COC(=O)N(OC)c1ccccc1COc1ccn(-c2ccc(Cl)cc2)n1` [Pyraclostrobin, pyraclostrobin], the Observed efficacy [2] was 0% and the Observed efficacy (Septoria tritici; concentration 0.004) was 59%.

In the case of `CO/C=C(/C(=O)OC)c1ccccc1COc1cccc(C(F)(F)F)n1` [Picoxystrobin, picoxystrobin], the Observed efficacy (Alternaria solani; concentration 0.25) is reported as 39%.

With `Fc1ccc([C@]2(Cn3cncn3)O[C@H]2c2ccccc2Cl)cc1` (racemic) [Epoxiconazol, epoxiconazole] the Observed efficacy (Alternaria solani; concentration 0.25) was 36% and the Observed efficacy (Septoria tritici; concentration 0.25) was 35%.

`CC1(C(=O)Nc2ccc(O)c(Cl)c2Cl)CCCCC1` [Fenhexamid, fenhexamid] showed an Observed efficacy (Alternaria solani; concentration 4) of 46%.

Work on `Cn1cc(C(=O)Nc2ccccc2-c2cc(F)c(F)c(F)c2)c(C(F)F)n1` [Fluxapyroxad, fluxapyroxad] yielded an Observed efficacy [2] of 0%.

`CO/N=C(/C1=NOCCO1)c1ccccc1Oc1ncnc(Oc2ccccc2Cl)c1F` [Fluoxastrobin, fluoxastrobin] showed an Observed efficacy (Alternaria solani; concentration 0.25) of 11%.

`CON=C(C(=O)OC)c1ccccc1CON=C(C)c1cccc(C(F)(F)F)c1` [Trifloxystrobin, trifloxystrobin] showed an Observed efficacy (Septoria tritici; concentration 0.004) of 7% and an Observed efficacy (Septoria tritici; concentration 0.016) of 67%.
